Experimental data: patent publication US11731972B2, “Spiro compounds as glycosidase inhibitors” (Asceneuron SA, priority 2018, dated 2023)

target: His-Tagged hOGA (human O-GlcNAcase) (Homo sapiens (Human), UniProt O60502); test: Human O-GlcNAcase enzyme inhibition assay (Example B01); type: biochemical; settings: OGA enzyme inhibition assay; FL-GlcNAc substrate, 60 min, room temperature, pH 6.5
Method: Example B01: Human O-GlcNAcase Enzyme Inhibition Assay
5 μl of the appropriate concentration of a solution of inhibitor in McIlvaine's Buffer (pH 6.5) in 2% DMSO (for a dose response curve calculation) is added into each well of a 384-well plate (Greiner, 781900). Then, 20 nM of His-Tagged hOGA and 10 μM of FL-GlcNAc (Fluorescein mono-beta-D-(2-deoxy-2-N-acetyl) glucopyranoside; Marker Gene Technologies Inc, M1485) were added to the 384-well plate for a final volume of 20 μl. After incubation for 60 min at room temperature, the reaction was terminated by the addition of 10 μL of stop buffer (200 mM glycine, pH 10.75). The level of fluorescence (λexc 485 nm; (λemm 520 nm) was read on a PHERAstar machine. The amount of fluorescence measured was plotted against the concentration of inhibitor to produce a sigmoidal dose response curve to calculate an IC50. All individual data was corrected by subtraction of the background (Thiamet 3 uM=100% inhibition) whilst 0.5% DMSO was considered as the control value (no inhibition).

His-Tagged hOGA (human O-GlcNAcase), sequence (O60502 whole entry): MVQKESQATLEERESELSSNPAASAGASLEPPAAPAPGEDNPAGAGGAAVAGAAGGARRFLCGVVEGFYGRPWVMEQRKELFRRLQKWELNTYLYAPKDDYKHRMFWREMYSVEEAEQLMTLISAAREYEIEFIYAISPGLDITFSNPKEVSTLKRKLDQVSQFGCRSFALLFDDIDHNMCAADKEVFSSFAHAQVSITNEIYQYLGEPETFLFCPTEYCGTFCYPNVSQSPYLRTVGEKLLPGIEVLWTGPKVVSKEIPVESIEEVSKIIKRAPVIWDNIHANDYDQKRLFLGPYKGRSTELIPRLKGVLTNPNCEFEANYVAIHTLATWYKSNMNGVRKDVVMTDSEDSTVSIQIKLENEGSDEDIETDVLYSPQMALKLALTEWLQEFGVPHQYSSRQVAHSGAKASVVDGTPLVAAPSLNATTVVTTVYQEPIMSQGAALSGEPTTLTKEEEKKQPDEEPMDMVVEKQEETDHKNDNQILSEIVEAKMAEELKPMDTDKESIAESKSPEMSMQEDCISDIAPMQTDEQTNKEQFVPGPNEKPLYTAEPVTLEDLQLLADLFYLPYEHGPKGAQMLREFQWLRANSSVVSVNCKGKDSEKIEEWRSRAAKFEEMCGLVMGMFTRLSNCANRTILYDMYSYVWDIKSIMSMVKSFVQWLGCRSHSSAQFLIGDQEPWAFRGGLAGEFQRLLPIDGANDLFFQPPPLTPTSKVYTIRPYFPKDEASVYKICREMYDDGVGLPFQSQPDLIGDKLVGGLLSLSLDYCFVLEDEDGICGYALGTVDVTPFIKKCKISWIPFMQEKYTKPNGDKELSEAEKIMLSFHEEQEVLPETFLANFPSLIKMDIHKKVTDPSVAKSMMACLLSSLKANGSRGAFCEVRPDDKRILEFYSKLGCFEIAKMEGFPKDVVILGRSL

SMILES | IC50 [nM]
CC(c1ccc2c(c1)OCC2)N1CCC2(CC1)NC(=O)N(c1ccc(C#N)cc1)C2=O (racemic) [Example 12, 4-(8-(1-(2,3-dihydrobenzofuran-6-yl)ethyl)-2,4-dioxo-1,3,8-triazaspiro[4.5]decan-3-yl)benzonitrile] | < 50
CC(c1ccc2scnc2c1)N1CCC2(CC1)C(=O)N(Cc1ccc(S(C)(=O)=O)cc1)C(=O)N2Cc1ccc(S(C)(=O)=O)cc1 (racemic) [Example 24, 8-(1-(benzo[d]thiazol-5-yl)ethyl)-1,3-bis(4-(methylsulfonyl)benzyl)-1,3,8-triazaspiro[4.5]decane-2,4-dione] | 200 to 1000
CC(c1ccc2scnc2c1)N1CCC2(CC1)C(=O)N(c1ccc(C#N)cc1)c1ccccc12 (racemic) [Example 25, 4-(1′-(1-(benzo[d]thiazol-5-yl)ethyl)-2-oxospiro[indoline-3,4′-piperidin]-1-yl)benzonitrile] | 50 to 200
CC(=O)Nc1ncc(CN2CCC3(CC2)NC(=O)N(Cc2ccc(C)nc2)C3=O)s1 (racemic) [IA3] | 50 to 200
CC(c1ccc2scnc2c1)N1CCC2(CC1)NC(=O)N(Cc1cncnc1)C2=O (racemic) [Example 5] | 50 to 200
CC(c1ccc2c(c1)OCC2)N1CCC2(CC1)NC(=O)N(Cc1ccc(C(F)(F)F)nc1)C2=O (racemic) [Example 9] | 50 to 200
Cc1cc(CN2C(=O)NC3(CCN(C(C)c4ccc5scnc5c4)CC3)C2=O)ccn1 (racemic) [Example 67] | 50 to 200
CC(c1ccc2c(c1)OCC2)N1CCC2(CC1)C(=O)N(Cc1ccc(C#N)cc1)C(=O)N2Cc1ccc(C#N)cc1 (racemic) [Example 30, 4,4′-((8-(1-(2,3-dihydrobenzofuran-6-yl)ethyl)-2,4-dioxo-1,3,8-triazaspiro[4.5]decane-1,3-diyl)bis(methylene))dibenzonitrile] | 200 to 1000
CC(c1ccc2scnc2c1)N1CCC2(CC1)NC(=O)NC2=O (racemic) [Example 3, 8-(1-(benzo[d]thiazol-5-yl)ethyl)-1,3,8-triazaspiro[4.5]decane-2,4-dione] | 1000 to 10000

Continued, values first:

IC50 [nM] | SMILES
200 to 1000 | Cc1cc(N2CCC3(CCN(C(C)c4ccc5scnc5c4)CC3)C2)n2nccc2n1 (racemic) [Example 14, 5-(1-(2-(5-methylpyrazolo[1,5-a]pyrimidin-7-yl)-2,8-diazaspiro[4.5]decan-8-yl)ethyl)benzo[d]thiazole]
50 to 200 | CC(c1ccc2scnc2c1)N1CCC2(CC1)NC(=O)N(c1ccc(F)cc1)C2=O (racemic) [Example 63]
1000 to 10000 | CC(c1ccc2scnc2c1)N1CCC2(CC1)C(=O)N(Cc1ccc(C#N)cc1)C(=O)N2C (racemic) [Example 75]
1000 to 10000 | CC(c1ccc2scnc2c1)N1CCC2(CC1)CCN(S(C)(=O)=O)C2 (racemic) [Example 31, 5-(1-(2-(methylsulfonyl)-2,8-diazaspiro[4.5]decan-8-yl)ethyl) benzo[d]thiazole]
1000 to 10000 | Cc1cc(N2CC3(CCN(C(C)c4ccc5scnc5c4)CC3)CC2=O)n2nccc2n1 (racemic) [Example 72]
200 to 1000 | CC(c1ccc2scnc2c1)N1CCC2(CCN(c3ccc(C#N)cc3)C2)CC1 (racemic) [Example 28, 4-(8-(1-(benzo[d]thiazol-5-yl)ethyl)-2,8-diazaspiro[4.5]decan-2-yl) benzonitrile]
